These results are taken from ChEMBL document CHEMBL1221311, “The synthesis and structure-activity relationship of 4-benzimidazolyl-piperidinylcarbonyl-piperidine analogs as histamine H3 antagonists” (Bioorg Med Chem Lett, 2010).

Data set [1] addresses Histamine H3 receptor (Cavia porcellus, UniProt Q9JI35). Kind of data set: Displacement of [3H]Nalpha-methylhistamine from histamine H3 receptor in guinea pig brain. For orientation: Loss of bound radioactivity is the signal in a displacement assay; it reports binding, not function.
Data set [2] deals with Histamine H3 receptor (Cavia porcellus) (UniProt Q9JI35). Kind of data set: Displacement of [3H]Nalpha-methylhistamine from histamine H3 receptor in guinea pig brain at 1 uM.
Sequence of Histamine H3 receptor (Cavia porcellus) (Q9JI35 whole entry): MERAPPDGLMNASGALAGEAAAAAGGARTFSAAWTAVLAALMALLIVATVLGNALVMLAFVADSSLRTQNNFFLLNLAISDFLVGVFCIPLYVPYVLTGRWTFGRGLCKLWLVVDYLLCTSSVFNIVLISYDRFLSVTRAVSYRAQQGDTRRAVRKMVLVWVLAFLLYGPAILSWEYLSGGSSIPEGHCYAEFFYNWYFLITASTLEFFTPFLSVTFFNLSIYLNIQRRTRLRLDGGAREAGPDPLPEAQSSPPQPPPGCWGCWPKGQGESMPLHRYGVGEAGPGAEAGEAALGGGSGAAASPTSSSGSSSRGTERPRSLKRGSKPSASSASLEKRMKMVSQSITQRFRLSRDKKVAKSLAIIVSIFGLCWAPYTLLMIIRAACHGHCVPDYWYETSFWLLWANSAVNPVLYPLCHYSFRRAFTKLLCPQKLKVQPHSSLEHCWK
The target of data set [3] is Cytochrome P450 3A4 (Homo sapiens, UniProt P08684). Kind of data set: Inhibition of CYP3A4 in human liver microsomes. It counts as ADME, Microsome. On the technique in general: Microsomes from liver hold many membrane-bound enzymes, among them those of drug oxidation.
Sequence of Cytochrome P450 3A4 (P08684 whole entry): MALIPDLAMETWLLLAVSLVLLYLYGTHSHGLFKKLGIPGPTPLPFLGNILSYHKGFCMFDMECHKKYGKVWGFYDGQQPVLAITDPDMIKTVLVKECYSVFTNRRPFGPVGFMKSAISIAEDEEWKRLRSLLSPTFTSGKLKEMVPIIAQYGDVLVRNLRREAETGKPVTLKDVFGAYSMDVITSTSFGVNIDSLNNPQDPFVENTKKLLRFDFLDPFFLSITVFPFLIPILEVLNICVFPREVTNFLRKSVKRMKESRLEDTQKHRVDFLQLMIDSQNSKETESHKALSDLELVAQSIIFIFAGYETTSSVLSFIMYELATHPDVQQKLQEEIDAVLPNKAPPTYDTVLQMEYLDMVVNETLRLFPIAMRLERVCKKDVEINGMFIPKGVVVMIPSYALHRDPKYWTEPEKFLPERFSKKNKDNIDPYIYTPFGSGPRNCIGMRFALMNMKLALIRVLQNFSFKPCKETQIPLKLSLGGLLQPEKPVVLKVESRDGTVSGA
The target of data set [4] is Cytochrome P450 2D6 (Homo sapiens, UniProt P10635). Kind of data set: Inhibition of CYP2D6 in human liver microsomes. The class given is ADME, Microsome.
Sequence of Cytochrome P450 2D6 (P10635 whole entry): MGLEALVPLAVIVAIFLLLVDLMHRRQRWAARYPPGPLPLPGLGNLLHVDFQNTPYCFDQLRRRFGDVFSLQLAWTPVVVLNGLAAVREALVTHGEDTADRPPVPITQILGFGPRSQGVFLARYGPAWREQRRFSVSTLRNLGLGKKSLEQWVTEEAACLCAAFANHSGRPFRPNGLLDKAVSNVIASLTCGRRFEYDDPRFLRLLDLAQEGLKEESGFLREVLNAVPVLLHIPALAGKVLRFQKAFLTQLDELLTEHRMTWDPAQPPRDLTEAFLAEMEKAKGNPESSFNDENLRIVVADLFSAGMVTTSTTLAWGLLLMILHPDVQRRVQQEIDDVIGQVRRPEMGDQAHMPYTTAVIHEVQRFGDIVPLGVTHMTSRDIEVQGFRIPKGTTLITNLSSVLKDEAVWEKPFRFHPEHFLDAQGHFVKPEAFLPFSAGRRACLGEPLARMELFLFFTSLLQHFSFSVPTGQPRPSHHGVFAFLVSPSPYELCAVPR
Data set [5] has as its target Cytochrome P450 2C9 (Homo sapiens, UniProt P11712). Kind of data set: Inhibition of CYP2C9 in human liver microsomes. The class given is ADME, Microsome.
The test system of data set [6] is Cavia porcellus. Kind of data set: Antihypertensive activity in po dosed guinea pig assessed as inhibition of (R)-alpha-methylhistamine-induced hypertension. The class given is functional.
Data set [7] can be described thus: Clearance in human hepatocytes assessed per million cells. It counts as ADME, cell-based, Liver, Hepatocyte.
Data set [8] is described as follows: Clearance in rat hepatocytes assessed per million cells. The class given is ADME, cell-based, Liver, Hepatocyte.
In data set [9] the target is hERG (KCNH2) (Homo sapiens, UniProt Q12809). Kind of data set: Inhibition of human ERG at 10 uM.
Sequence of hERG (KCNH2) (Q12809 whole entry): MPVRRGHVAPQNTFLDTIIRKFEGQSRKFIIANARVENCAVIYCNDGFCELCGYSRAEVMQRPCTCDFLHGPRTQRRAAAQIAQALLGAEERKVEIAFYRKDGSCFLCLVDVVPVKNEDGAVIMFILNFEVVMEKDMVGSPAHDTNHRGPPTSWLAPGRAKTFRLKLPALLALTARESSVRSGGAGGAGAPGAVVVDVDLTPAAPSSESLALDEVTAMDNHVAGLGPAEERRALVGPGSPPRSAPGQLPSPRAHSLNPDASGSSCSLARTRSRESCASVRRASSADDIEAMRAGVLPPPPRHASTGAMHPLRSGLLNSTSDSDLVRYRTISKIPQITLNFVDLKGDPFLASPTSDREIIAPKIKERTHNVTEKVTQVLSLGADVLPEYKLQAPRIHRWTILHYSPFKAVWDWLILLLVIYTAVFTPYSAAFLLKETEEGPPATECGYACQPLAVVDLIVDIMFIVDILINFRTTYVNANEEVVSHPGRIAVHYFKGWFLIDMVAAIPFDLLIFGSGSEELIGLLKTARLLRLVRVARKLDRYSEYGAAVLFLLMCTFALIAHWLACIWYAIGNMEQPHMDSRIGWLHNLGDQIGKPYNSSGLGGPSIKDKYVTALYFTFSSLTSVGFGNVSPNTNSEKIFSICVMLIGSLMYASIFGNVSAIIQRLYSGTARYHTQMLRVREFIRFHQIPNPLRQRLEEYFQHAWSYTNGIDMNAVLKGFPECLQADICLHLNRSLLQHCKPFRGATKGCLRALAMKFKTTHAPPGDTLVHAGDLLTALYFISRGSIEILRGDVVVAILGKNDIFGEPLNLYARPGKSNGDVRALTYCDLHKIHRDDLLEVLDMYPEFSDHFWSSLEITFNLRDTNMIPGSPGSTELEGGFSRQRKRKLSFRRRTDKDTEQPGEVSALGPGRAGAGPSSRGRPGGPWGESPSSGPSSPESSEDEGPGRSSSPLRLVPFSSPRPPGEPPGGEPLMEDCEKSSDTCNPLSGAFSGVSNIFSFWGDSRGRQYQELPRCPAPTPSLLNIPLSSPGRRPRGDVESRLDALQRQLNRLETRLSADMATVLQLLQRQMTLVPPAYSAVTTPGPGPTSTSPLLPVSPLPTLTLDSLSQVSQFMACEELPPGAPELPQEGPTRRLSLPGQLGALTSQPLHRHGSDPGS
Data set [10] can be described thus: AUC in rat at 10 mg/kg, po. More on the design: dose 10 mg/kg, route oral. It counts as ADME, organism-based. The note with it: plasma.

Sequence of Histamine H3 receptor (Q9JI35 whole entry): as the sequence (Q9JI35 whole entry) above
Sequence of Cytochrome P450 2C9 (P11712 whole entry): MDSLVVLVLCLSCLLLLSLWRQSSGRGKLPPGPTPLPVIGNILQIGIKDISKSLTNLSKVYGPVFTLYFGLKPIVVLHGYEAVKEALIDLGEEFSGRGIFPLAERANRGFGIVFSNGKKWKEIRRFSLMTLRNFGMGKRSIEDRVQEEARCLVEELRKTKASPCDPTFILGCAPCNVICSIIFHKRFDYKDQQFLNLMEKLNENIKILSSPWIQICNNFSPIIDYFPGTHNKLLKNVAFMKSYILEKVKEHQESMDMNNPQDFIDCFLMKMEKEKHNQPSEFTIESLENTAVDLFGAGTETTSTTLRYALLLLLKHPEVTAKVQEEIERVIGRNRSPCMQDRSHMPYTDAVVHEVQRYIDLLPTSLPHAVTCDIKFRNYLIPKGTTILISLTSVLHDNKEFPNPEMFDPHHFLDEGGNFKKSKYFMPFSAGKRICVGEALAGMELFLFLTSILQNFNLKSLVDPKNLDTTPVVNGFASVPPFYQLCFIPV

Broadly, the Ki is a measure of affinity in units of concentration, obtained from inhibition or displacement. A low value points to higher affinity. In turn, `CN1CCN(C(=O)C2CCN(Cc3ccncc3)CC2)CC1` had an inhibition constant (Ki) in [1] of 355 nM.
As a reminder, the inhibition is the share of the control response that was lost under treatment. The molecule `Cn1cc(CN2CCC(C(=O)N3CCC(n4c(=O)[nH]c5ccccc54)CC3)CC2)c2ccccc21` gave an inhibition in [2] of 30%.
Consider `O=c1[nH]c2ccccc2n1C1CCN(CC2CCN(Cc3ccncc3)CC2)CC1`, for which, in [1], the Ki is 24 nM. This counts as double-digit nanomolar.
Turning to `O=C(c1ccccc1)C1CCN(C(=O)C2CCN(Cc3ccncc3)CC2)CC1`, the inhibition constant Ki in data set [1] is 17 nM.
Take `O=C(C1CCN(Cc2cccnc2)CC1)N1CCC(n2c(=O)[nH]c3ccccc32)CC1`: in data set [1], the inhibition constant (Ki) came out at 174 nM. This Ki lies about 10-fold higher than the previous one.
As a reminder, the IC50 is the concentration that gives 50% inhibition. Higher therefore signals a need for much substance. Regarding `CCOCCn1c(=O)n(C2CCN(C(=O)C3CCN(Cc4ccncc4)CC3)CC2)c2ccccc21`, in [1], affinity was put at a Ki of 1.7 nM. Moreover, the IC50 was 13.5 µM in [3] and more than 20 µM in data set [4].
On the same counts, the results for `CC(C)OCCn1c(=O)n(C2CCN(C(=O)C3CCN(Cc4ccncc4)CC3)CC2)c2ccccc21` are 0.65 nM, 6 µM and more than 20 µM.
As a reminder, the ED50 is the dose at which the effect has come halfway, by size or by number of responders. A word on the hepatocyte CLint: it is a measure of how fast metabolising enzymes remove a compound, apart from limits set by blood flow. A high value points to faster metabolism. For orientation: AUC means concentration integrated over time. Read a low AUC as low exposure. Consider `CN(C)CCn1c(=O)n(C2CCN(C(=O)C3CCN(Cc4ccncc4)CC3)CC2)c2ccccc21`, for which the IC50 in data set [5] was more than 20 µM; in [3], more than 30 µM; in [4], 10.5 µM. The ED50 in data set [6] was less than 0.3 mg/kg. For the same molecule, the hepatocyte CLint in data set [7] and in data set [8] was less than 10 µL/min/1e6 cells each time. The molecule also came in with an inhibition at 10 µM in [9] of less than 10%. Besides, the exposure (AUC) in data set [10] worked out at 0.24 µM·h. In data set [1], this molecule came in with an inhibition constant Ki of 0.2 nM.
Consider `CN(C)CCCn1c(=O)n(C2CCN(C(=O)C3CCN(Cc4ccncc4)CC3)CC2)c2ccccc21`, for which the half-maximal inhibitory concentration (IC50) in data set [5] is more than 20 µM; in data set [3], more than 30 µM; in data set [4] it was 1.6 µM.
The molecule `O=C(C1CCN(Cc2ccncc2)CC1)N1CCN(c2ccccc2)CC1` had a Ki in data set [1] of 40 nM.
Same read-out and setting: as for `O=C(C1CCN(CCc2ccncc2)CC1)N1CCC(n2c(=O)[nH]c3ccccc32)CC1`, the figure is 537 nM.
Molecule `O=C(c1ccncc1)N1CCC(C(=O)N2CCC(n3c(=O)[nH]c4ccccc43)CC2)CC1` gave an inhibition in data set [2] of 11%.
`O=C(C1CCN(Cc2ccncc2)CC1)N1CCC(n2c(=O)n(Cc3ccccc3)c3ccccc32)CC1` had an inhibition constant Ki in [1] of 0.2 nM. For the same molecule, the IC50 in [3] was found to be 0.4 µM; in data set [4] it was 9.1 µM.
`O=C(C1CCN(Cc2ccncc2)CC1)N1CCN(Cc2ccccc2)CC1` registered an inhibitory constant (Ki) in data set [1] of 28 nM.
The molecule `O=C(C1CCN(Cc2ccncc2Cl)CC1)N1CCC(n2c(=O)[nH]c3ccccc32)CC1` returned a Ki in data set [1] of 222 nM.
In the case of `O=C(C1CCN(Cc2ccncc2)CC1)N1CCC(n2c(=O)n(Cc3cccc(Cl)c3)c3ccccc32)CC1`, in [1], affinity was put at a Ki of 2 nM. Further, the half-inhibitory concentration (IC50) came to 0.3 µM in data set [3] and 4.2 µM in [4].
Consider `O=C(C1CCN(Cc2ccncc2)CC1)N1CCC(n2c(=O)n(CCN3CCCCC3)c3ccccc32)CC1`, for which the values for the half-maximal inhibitory concentration (IC50) in data set [5], in data set [3] and in data set [4] were more than 20 µM, 30 µM and 3.7 µM, respectively. In addition, in data set [6], the ED50 is less than 0.3 mg/kg. In addition, the intrinsic clearance (hepatocyte CLint) in [7] and in data set [8] was less than 10 µL/min/1e6 cells in each case. The molecule also came in with an inhibition at 10 µM in data set [9] of less than 10%. The molecule further registered an AUC in data set [10] of 0.24 µM·h. For the same molecule, the Ki in [1] was 0.15 nM.
Regarding `O=C(N1CCC(n2c(=O)[nH]c3ccccc32)CC1)N1CCN(Cc2ccncc2)CC1`, in data set [1], the affinity, expressed as Ki, was 17 nM.
In the case of `O=C(C1CCN(Cc2ccncc2)CC1)N1CCC(n2c(=O)[nH]c3ccccc32)CC1`, the results for the IC50 in data set [5], in data set [3] and in data set [4] were more than 20 µM, 9.5 µM and more than 20 µM, respectively. Moreover, the ED50 in [6] was less than 0.3 mg/kg. Also, the intrinsic clearance (hepatocyte CLint) in [7] and in data set [8] was less than 10 µL/min/1e6 cells in each case. In data set [9], this molecule had an inhibition at 10 µM of less than 10%. The same molecule registered an area under the curve (AUC) in data set [10] of 0.24 µM·h. In addition, the Ki in data set [1] is 2 nM.
`O=C(C1CCN(Cc2ccncc2)CC1)N1CCC(n2c(=O)n(CCOc3ccccc3)c3ccccc32)CC1` had an inhibition constant (Ki) in [1] of 2 nM. The values for the IC50 in data set [3] and in data set [4] were 9 µM and 20 µM, respectively.
On to `O=C(C1CCN(Cc2cc[n+]([O-])cc2)CC1)N1CCC(n2c(=O)[nH]c3ccccc32)CC1`, for which the Ki in data set [1] was found to be 440 nM.
As for `O=C(C1CCN(Cc2ccncc2)CC1)N1CCC(n2c(=O)n(Cc3ccc(Cl)cc3)c3ccccc32)CC1`, the inhibition constant Ki in data set [1] amounted to 0.9 nM. Besides, the IC50 in data set [3] was 0.4 µM; in [4] it was 5.8 µM.
In data set [1], `O=C(C1CCN(Cc2ccncc2)CC1)N1CCC2(CC1)C(=O)NCN2c1ccccc1` displayed a Ki of 20 nM.
In turn, `O=C(NCCc1ccccc1)c1cccc(CN2CCN(C(=O)C3CCN(Cc4ccncc4)CC3)CC2)c1` showed an inhibitory constant (Ki) in [1] of 27 nM. The Ki values of the last two molecules are within 1.5-fold of each other.
Regarding `O=C(C1CCN(Cc2ccncc2)CC1)N1CCN(C2CCCCC2)CC1`, in data set [1], the inhibition constant Ki worked out at 14 nM.
Turning to `Cn1ccc(CN2CCC(C(=O)N3CCC(n4c(=O)[nH]c5ccccc54)CC3)CC2)c1`, in [2], the inhibition was found to be 42%.
`CCOCCCn1c(=O)n(C2CCN(C(=O)C3CCN(Cc4ccncc4)CC3)CC2)c2ccccc21`: in data set [1], the affinity, expressed as Ki, was 0.8 nM. Moreover, the figures for the 50% inhibitory concentration (IC50) in [3] and in [4] were 10.6 µM and more than 20 µM, respectively.
As for `O=C(CC1CCN(Cc2ccncc2)CC1)N1CCC(n2c(=O)[nH]c3ccccc32)CC1`, in [1], the affinity, expressed as Ki, was 180 nM.
The molecule `O=C(C1CCN(Cc2ccsc2)CC1)N1CCC(n2c(=O)[nH]c3ccccc32)CC1` displayed a Ki in data set [1] of 104 nM.
Consider `O=C(C1CCN(Cc2ccccn2)CC1)N1CCC(n2c(=O)[nH]c3ccccc32)CC1`, for which, in [2], the inhibition came to 40%.
Turning to `O=C(C1CCN(Cc2ccncc2)CC1)N1CCN(Cc2cccc(Cl)c2)CC1`, the Ki in [1] was 6.3 nM.
The molecule `O=C(C1CCN(Cc2ccnc3ccccc23)CC1)N1CCC(n2c(=O)[nH]c3ccccc32)CC1` yielded a Ki in data set [1] of 681 nM.
Molecule `COCCCNC(=O)c1cccc(CN2CCN(C(=O)C3CCN(Cc4ccncc4)CC3)CC2)c1` had an inhibition constant (Ki) in data set [1] of 210 nM.
The molecule `Cn1c(=O)n(C2CCN(C(=O)C3CCN(Cc4ccncc4)CC3)CC2)c2ccccc21` displayed a Ki in [1] of 4.3 nM. Besides, the half-inhibitory concentration (IC50) in data set [3] was 7.5 µM; in [4], more than 20 µM.
On to `O=C(C1CCN(Cc2ccncc2)CC1)N1CCC(n2c(=O)n(CCO)c3ccccc32)CC1`, for which the inhibition constant Ki in data set [1] was 0.95 nM. For the same molecule, the IC50 is more than 30 µM in data set [3] and more than 20 µM in data set [4].
Molecule `CC(c1ccncc1)N1CCC(C(=O)N2CCC(n3c(=O)[nH]c4ccccc43)CC2)CC1` (configuration not stated) showed a Ki in data set [1] of 20 nM. In other words, the double-digit nanomolar range.
`O=C(C1CCN(Cc2ccoc2)CC1)N1CCC(n2c(=O)[nH]c3ccccc32)CC1` came in with a Ki in [1] of 204 nM.
Same read-out and setting: as for `O=C(C1CCN(Cc2ccncc2)CC1)N1CCC(O)(Cc2ccccc2)CC1`, the figure is 30 nM.
For `COc1cccc(Cn2c(=O)n(C3CCN(C(=O)C4CCN(Cc5ccncc5)CC4)CC3)c3ccccc32)c1`, the affinity in data set [1] corresponds to a Ki of 0.3 nM. Further, the IC50 in data set [3] stood at 0.2 µM; in [4], 5.6 µM.
For `COc1ccc(Cn2c(=O)n(C3CCN(C(=O)C4CCN(Cc5ccncc5)CC4)CC3)c3ccccc32)cc1`, the Ki in [1] was 0.25 nM. Besides, the results for the IC50 in data set [3] and in data set [4] were 0.4 µM and 20 µM, respectively.
For `O=C(C1CCN(Cc2ccncc2)CC1)N1CCC(Cc2ccccc2)CC1`, the affinity in data set [1] corresponds to a Ki of 5.5 nM.
`COCCn1c(=O)n(C2CCN(C(=O)C3CCN(Cc4ccncc4)CC3)CC2)c2ccccc21`: the affinity in [1] corresponds to a Ki of 2 nM. Moreover, the half-inhibitory concentration (IC50) in data set [3] was 11 µM; in data set [4], more than 20 µM.
Molecule `CC(C)Cn1c(=O)n(C2CCN(C(=O)C3CCN(Cc4ccncc4)CC3)CC2)c2ccccc21` displayed a Ki in data set [1] of 0.4 nM. Moreover, the results for the half-maximal inhibitory concentration (IC50) in data set [3] and in [4] were 1.5 µM and 1.9 µM, respectively.
For `O=C(C1CCN(Cc2ccncc2)CC1)N1CCC(n2c(=O)n(CCN3CCOCC3)c3ccccc32)CC1`, the IC50 is more than 20 µM in [5], 30 µM in [3] and more than 20 µM in data set [4]. Further, the ED50 in data set [6] is less than 0.3 mg/kg. The hepatocyte CLint in data set [7] and in data set [8] was less than 10 µL/min/1e6 cells throughout. This molecule returned an inhibition at 10 µM in data set [9] of less than 10%. Also, the area under the curve (AUC) in data set [10] is 0.24 µM·h. The same molecule returned a Ki in data set [1] of 0.5 nM.
In [1], `O=C(C1CCN(Cc2ccncc2)CC1)N1CCC(n2c(=O)n(Cc3ccccc3Cl)c3ccccc32)CC1` had an inhibition constant Ki of 4.5 nM. Also, the figures for the concentration for half-maximal inhibition (IC50) in data set [3] and in data set [4] were 0.5 µM and 6.7 µM, respectively.
